According to PubChem BioAssay AID1918957 (Molecular Pharmacology Branch, DTP, NCI, 2023):

Tested on: NCI-H1876 complex spheroid viability
Assay: Anticancer human tumor NCI-H1876 cell line growth inhibition [LSD1];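 also: spheroids exposed to compounds for one week before readout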;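 as to viability, T/C: 100% = DMSO vehicle-treated spheroids so lower means fewer viable cells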
Settings: for IC50: curve of first compound; for viability, T/C: stronger effect = lower value
Summary of the method: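 Drug combinations with the LSD1 inhibitor iadademstat tested on tumor cells co-cultured as spheroids with endothelial cells and mesenchymal stem cells. Concentrations descended in half-log increments from clinical Cmax or 10 microM.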

[1] = second compound 0.1 µM, first compound 0.0316 µM
[2] = second compound 0.1 µM, first compound 0.1 µM
[3] = second compound 0.1 µM, first compound 0.316 µM
[4] = second compound 0.1 µM, first compound 1 µM
[5] = second compound 0.316 µM, first compound 0.0316 µM
[6] = second compound 0.316 µM, first compound 0.1 µM
[7] = second compound 0.316 µM, first compound 0.316 µM
[8] = second compound 0.316 µM, first compound 1 µM
[9] = second compound 1 µM, first compound 0.0316 µM
[10] = second compound 1 µM, first compound 0.1 µM
[11] = second compound 1 µM, first compound 0.316 µM
[12] = second compound 1 µM, first compound 1 µM
[13] = second compound 3.16 µM, first compound 0.0316 µM
[14] = second compound 3.16 µM, first compound 0.1 µM
[15] = second compound 3.16 µM, first compound 0.316 µM
[16] = second compound 3.16 µM, first compound 1 µM
[17] = second compound 10 µM, first compound 0.0316 µM
[18] = second compound 10 µM, first compound 0.1 µM
[19] = second compound 10 µM, first compound 0.316 µM
[20] = second compound 10 µM, first compound 1 µM

`CC1COCCN1c1cc(-c2ccnn2C)c2ccnc(-c3ccn[nH]3)c2n1` (stereo not given) + NC1CCC(NC2CC2c2ccccc2)CC1 gave an IC50 (second compound 0.1 µM) of 19.9 nM, an IC50 (second compound 0.316 µM) of 21.9 nM and an IC50 (second compound 1 µM) of 19.1 nM. For the same compound, the IC50 (second compound 3.16 µM) was 18.7 nM, the IC50 (second compound 10 µM) was 9.68 nM and the viability, T/C (second compound 0.1 µM, first compound 0.00316 µM) was 86.9%. The viability, T/C (second compound 0.1 µM, first compound 0.01 µM) was 70.5%, the viability, T/C [1] was 34.9% and the viability, T/C [2] was 25.3%. For the same compound, the viability, T/C [3] was 23.4%, the viability, T/C [4] was 12.1% and the viability, T/C (second compound 0.316 µM, first compound 0.00316 µM) was 83.5%. It also gave a viability, T/C (second compound 0.316 µM, first compound 0.01 µM) of 79.7%, a viability, T/C [5] of 35.7% and a viability, T/C [6] of 28.7%. It also gave a viability, T/C [7] of 11%, a viability, T/C [8] of 21.8% and a viability, T/C (second compound 1 µM, first compound 0.00316 µM) of 80.5%. The viability, T/C (second compound 1 µM, first compound 0.01 µM) was 68.3%, the viability, T/C [9] was 35.9% and the viability, T/C [10] was 15.2%. For the same compound, the viability, T/C [11] was 11.6%, the viability, T/C [12] was 12.7% and the viability, T/C (second compound 3.16 µM, first compound 0.00316 µM) was 77.4%. The viability, T/C (second compound 3.16 µM, first compound 0.01 µM) was 66.8%, the viability, T/C [13] was 36% and the viability, T/C [14] was 16%. The viability, T/C [15] was 12.4%, the viability, T/C [16] was 12.7% and the viability, T/C (second compound 10 µM, first compound 0.00316 µM) was 64.5%. It also gave a viability, T/C (second compound 10 µM, first compound 0.01 µM) of 50.2%, a viability, T/C [17] of 31.1% and a viability, T/C [18] of 19.9%. The viability, T/C [19] was 16.7% and the viability, T/C [20] was 11.4%.
`CC1(C)CCC(CN2CCN(c3ccc(C(=O)NS(=O)(=O)c4ccc(NCC5CCOCC5)c([N+](=O)[O-])c4)c(Oc4cnc5[nH]ccc5c4)c3)CC2)=C(c2ccc(Cl)cc2)C1` + NC1CCC(NC2CC2c2ccccc2)CC1 gave an IC50 (second compound 0.1 µM) of 2140 nM, an IC50 (second compound 0.316 µM) of 2000 nM and an IC50 (second compound 1 µM) of 2090 nM. It also gave an IC50 (second compound 3.16 µM) of 2060 nM, an IC50 (second compound 10 µM) of 2010 nM and a viability, T/C [1] of 103%. It also gave a viability, T/C [2] of 98.4%, a viability, T/C [3] of 99.3% and a viability, T/C [4] of 100%. It also gave a viability, T/C (second compound 0.1 µM, first compound 3.16 µM) of 24.5%, a viability, T/C (second compound 0.1 µM, first compound 10 µM) of 9.5% and a viability, T/C [5] of 104%. For the same compound, the viability, T/C [6] was 105%, the viability, T/C [7] was 97% and the viability, T/C [8] was 89.1%. It also gave a viability, T/C (second compound 0.316 µM, first compound 3.16 µM) of 24.3%, a viability, T/C (second compound 0.316 µM, first compound 10 µM) of 10.5% and a viability, T/C [9] of 92.9%. The viability, T/C [10] was 104%, the viability, T/C [11] was 102% and the viability, T/C [12] was 98.9%. It also gave a viability, T/C (second compound 1 µM, first compound 3.16 µM) of 22.4%, a viability, T/C (second compound 1 µM, first compound 10 µM) of 8.48% and a viability, T/C [13] of 115%. The viability, T/C [14] was 96.2%, the viability, T/C [15] was 103% and the viability, T/C [16] was 101%. For the same compound, the viability, T/C (second compound 3.16 µM, first compound 3.16 µM) was 19.8%, the viability, T/C (second compound 3.16 µM, first compound 10 µM) was 7.55% and the viability, T/C [17] was 99.2%. For the same compound, the viability, T/C [18] was 110%, the viability, T/C [19] was 87.2% and the viability, T/C [20] was 90.6%. It also gave a viability, T/C (second compound 10 µM, first compound 3.16 µM) of 23.6% and a viability, T/C (second compound 10 µM, first compound 10 µM) of 8%.
Work on `COc1cc(C2c3cc4c(cc3C(OC3OC5COC(C)OC5C(O)C3O)C3COC(=O)C23)OCO4)cc(OC)c1O` (stereo not given) + NC1CCC(NC2CC2c2ccccc2)CC1 yielded an IC50 (second compound 0.1 µM) of 61.4 nM, an IC50 (second compound 0.316 µM) of 49.2 nM and an IC50 (second compound 1 µM) of 48.1 nM. For the same compound, the IC50 (second compound 3.16 µM) was 50.9 nM, the IC50 (second compound 10 µM) was 43.9 nM and the viability, T/C (second compound 0.1 µM, first compound 0.00949 µM) was 91.7%. The viability, T/C (second compound 0.1 µM, first compound 0.03 µM) was 79.6%, the viability, T/C (second compound 0.1 µM, first compound 0.0949 µM) was 31.1% and the viability, T/C (second compound 0.1 µM, first compound 0.3 µM) was 23.5%. It also gave a viability, T/C (second compound 0.1 µM, first compound 0.949 µM) of 12.2%, a viability, T/C (second compound 0.1 µM, first compound 3 µM) of 11.8% and a viability, T/C (second compound 0.316 µM, first compound 0.00949 µM) of 89%. The viability, T/C (second compound 0.316 µM, first compound 0.03 µM) was 68.6%, the viability, T/C (second compound 0.316 µM, first compound 0.0949 µM) was 24.9% and the viability, T/C (second compound 0.316 µM, first compound 0.3 µM) was 22.3%. The viability, T/C (second compound 0.316 µM, first compound 0.949 µM) was 19.2%, the viability, T/C (second compound 0.316 µM, first compound 3 µM) was 10.7% and the viability, T/C (second compound 1 µM, first compound 0.00949 µM) was 91.7%. It also gave a viability, T/C (second compound 1 µM, first compound 0.03 µM) of 66.4%, a viability, T/C (second compound 1 µM, first compound 0.0949 µM) of 26% and a viability, T/C (second compound 1 µM, first compound 0.3 µM) of 22%. The viability, T/C (second compound 1 µM, first compound 0.949 µM) was 14.4%, the viability, T/C (second compound 1 µM, first compound 3 µM) was 18.9% and the viability, T/C (second compound 3.16 µM, first compound 0.00949 µM) was 94.5%. It also gave a viability, T/C (second compound 3.16 µM, first compound 0.03 µM) of 64.8%, a viability, T/C (second compound 3.16 µM, first compound 0.0949 µM) of 29.7% and a viability, T/C (second compound 3.16 µM, first compound 0.3 µM) of 29.5%. It also gave a viability, T/C (second compound 3.16 µM, first compound 0.949 µM) of 18.2%, a viability, T/C (second compound 3.16 µM, first compound 3 µM) of 13.7% and a viability, T/C (second compound 10 µM, first compound 0.00949 µM) of 82.7%. For the same compound, the viability, T/C (second compound 10 µM, first compound 0.03 µM) was 62.5%, the viability, T/C (second compound 10 µM, first compound 0.0949 µM) was 24.3% and the viability, T/C (second compound 10 µM, first compound 0.3 µM) was 23.4%. The viability, T/C (second compound 10 µM, first compound 0.949 µM) was 18.1% and the viability, T/C (second compound 10 µM, first compound 3 µM) was 14.2%.
